The results in this text go back to ChEMBL document CHEMBL2440106, “Cloning, characterization, and inhibition studies of a β-carbonic anhydrase from Leishmania donovani chagasi, the protozoan parasite responsible for leishmaniasis” (J Med Chem, 2013).

≈ marks a conversion by molar mass, not a printed value. Calls of active or inactive are those of the source. The rule behind the calls is not given here.

For assay [1], the system named is Leishmania amazonensis. The experiment in a line: Antileishmanial activity against promastigote form of Leishmania amazonensis MHOM/BR/76/Ma-5 assessed as parasite growth inhibition at 256 uM after 120 hrs by resazurin dye-based assay relative to control. Particulars: MHOM/BR/76/Ma-5, 120 h, read-out: GI. It is filed as functional. In general terms: Resazurin is reduced to fluorescent resorufin, in cell work by metabolically active cells.

In assay [2] the test system is Leishmania chagasi. The experiment in a line: Antileishmanial activity against promastigote form of Leishmania chagasi MHOM/BR/1974/PP75 assessed as parasite growth inhibition at 256 uM after 120 hrs by resazurin dye-based assay relative to control. The settings on record: MHOM/BR/1974/PP75, 120 h, read-out: GI. It is filed as functional.
For assay [3], the system named is Leishmania chagasi. The experiment in a line: Antileishmanial activity against promastigote form of Leishmania chagasi MHOM/BR/1974/PP75 assessed as parasite growth inhibition at 128 uM after 120 hrs by resazurin dye-based assay relative to control. It is filed as functional. Particulars: MHOM/BR/1974/PP75, 120 h, read-out: GI.
Assay [4] deals with Leishmania chagasi. The experiment in a line: Antileishmanial activity against promastigote form of Leishmania chagasi assessed as appearance of many number of vacuoles in cytoplasm at 256 uM after 24 hrs by transmission electron microscopic analysis. It is filed as functional, organism-based.
Assay [5] concerns Leishmania amazonensis. The assay can be described thus: Antileishmanial activity against promastigote form of Leishmania amazonensis MHOM/BR/76/Ma-5 assessed as parasite growth inhibition after 120 hrs by resazurin dye-based assay. The format is functional. Particulars: MHOM/BR/76/Ma-5, 120 h.
Assay [6] has as its system Leishmania amazonensis. The experiment in a line: Antileishmanial activity against promastigote form of Leishmania amazonensis MHOM/BR/76/Ma-5 assessed as parasite growth inhibition at 128 uM after 120 hrs by resazurin dye-based assay relative to control. The format is functional. Particulars: MHOM/BR/76/Ma-5, 120 h, read-out: GI.
Assay [7] has as its system Leishmania chagasi. The experiment in a line: Antileishmanial activity against promastigote form of Leishmania chagasi assessed as marked swelling of vacuoles at 256 uM after 24 hrs by transmission electron microscopic analysis. It is filed as functional, organism-based.
For assay [8], the system named is Leishmania chagasi. The assay can be described thus: Antileishmanial activity against promastigote form of Leishmania chagasi assessed as accumulation of intracytoplasmic electron-dense granules at 256 uM after 24 hrs by transmission electron microscopic analysis. The format is functional, organism-based.
In assay [9] the test system is Leishmania chagasi. The experiment in a line: Antileishmanial activity against promastigote form of Leishmania chagasi MHOM/BR/1974/PP75 assessed as parasite growth inhibition after 120 hrs by resazurin dye-based assay. It is filed as functional. The settings on record: MHOM/BR/1974/PP75, 120 h.
For assay [10], the system named is Leishmania chagasi. The experiment in a line: Antileishmanial activity against promastigote form of Leishmania chagasi assessed as appearance of autophagic vacuoles at 256 uM after 24 hrs by transmission electron microscopic analysis. It is filed as functional, organism-based.

Turning to `C/C(CC(C)C)=N/NC(=O)Nc1nnc(S)s1`, the inhibition of growth at 256 µM in the assay on Leishmania amazonensis [1] turned out to be 91.9%; with Leishmania chagasi [2], 74.8%.

On to `COc1cccc(/C=N\NC(=O)Nc2nnc(S)s2)c1`, for which the inhibition of growth at 256 µM stood at 76.4% in the assay on Leishmania amazonensis [1] and 32.2% in the assay with Leishmania chagasi [2].

Turning to `O=C(N/N=C\c1ccc(Cl)cc1)Nc1nnc(S)s1`, the inhibition of growth at 256 µM in the assay with Leishmania amazonensis [1] worked out at 62.3%; with Leishmania chagasi [2] it was 51.5%.

`O=C(N/N=C\c1cccc(Br)c1)Nc1nnc(S)s1`: the inhibition of growth at 128 µM in the assay on Leishmania chagasi [3] was 30%; in the assay on Leishmania amazonensis [6], 28%. Further, the result in the assay with Leishmania chagasi [4], in the assay on Leishmania chagasi [7], in the assay with Leishmania chagasi [8] and in the assay with Leishmania chagasi [10] was Active. Moreover, the minimal inhibitory concentration (MIC) in the assay with Leishmania amazonensis [5] and with Leishmania chagasi [9] was 256 µM (≈ 91.7 µg/mL) in each case. Besides, the inhibition of growth at 256 µM was determined as 97% in the assay with Leishmania amazonensis [1] and 100% in the assay with Leishmania chagasi [2].

Take `O=C(N/N=C\c1ccccc1)Nc1nnc(S)s1`: the inhibition of growth at 256 µM came to 45.8% with Leishmania amazonensis [1] and 36.3% with Leishmania chagasi [2].

With `O=C(N/N=C1\C(=O)Nc2ccccc21)Nc1n[nH]c(=S)s1`, the inhibition of growth at 256 µM in the assay on Leishmania amazonensis [1] and with Leishmania chagasi [2] was 0% in each case.

Consider `C/C(=N/NC(=O)Nc1nnc(S)s1)c1ccc(Cl)cc1`, for which the inhibition of growth at 256 µM with Leishmania amazonensis [1] was determined as 7%; in the assay with Leishmania chagasi [2] it was 0%.

Regarding `O=C(N/N=C1\C(=O)Nc2ccc(Br)cc21)Nc1n[nH]c(=S)s1`, the inhibition of growth at 256 µM in the assay on Leishmania amazonensis [1] and with Leishmania chagasi [2] was 0% throughout.

For the molecule `O=C(N/N=C\c1ccc(F)cc1)Nc1nnc(S)s1`, the inhibition of growth at 256 µM is 56% in the assay with Leishmania amazonensis [1] and 18% in the assay on Leishmania chagasi [2].
